Test results published in publication PMC7864055, “Biochemical and biophysical analyses of hypoxia sensing prolyl hydroxylases from Dictyostelium discoideum and Toxoplasma gondii” (The Journal of Biological Chemistry, 2021).

How the values were obtained:
TgPhyA [1] = target: T1, TgPhyA (Toxoplasma gondii, UniProt A0A7J6K353); experiment: differential scanning fluorimetry, SYPRO Orange; format: binding; conditions: with metal (Ni(II)); 25-80 °C
T1 construct: gene TGRH88_076950; full-length, recombinant; purification in Supporting information
T1 sequence (A0A7J6K353 1-271): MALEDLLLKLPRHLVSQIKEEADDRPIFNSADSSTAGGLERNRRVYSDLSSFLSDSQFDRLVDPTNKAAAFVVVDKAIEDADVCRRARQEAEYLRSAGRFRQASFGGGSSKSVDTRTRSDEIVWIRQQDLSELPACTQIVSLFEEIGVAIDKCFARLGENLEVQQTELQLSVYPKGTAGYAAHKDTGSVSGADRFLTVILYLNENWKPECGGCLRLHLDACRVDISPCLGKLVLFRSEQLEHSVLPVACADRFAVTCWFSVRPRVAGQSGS

DdPhyA = target: T2, DdPhyA (Dictyostelium discoideum, UniProt Q86KR9); experiment: differential scanning fluorimetry, SYPRO Orange; format: binding; conditions: with metal (Ni(II)); 25-80 °C; construct (full-length or truncated) not told in main text
T2 construct: gene phyA; full-length aa 1-284, E. coli BL21 Gold (DE3), N-terminal His6-ZBasic tag cleaved by TEV, EDTA-treated to remove metal
T2 sequence (Q86KR9 whole entry, the tested form may be a part): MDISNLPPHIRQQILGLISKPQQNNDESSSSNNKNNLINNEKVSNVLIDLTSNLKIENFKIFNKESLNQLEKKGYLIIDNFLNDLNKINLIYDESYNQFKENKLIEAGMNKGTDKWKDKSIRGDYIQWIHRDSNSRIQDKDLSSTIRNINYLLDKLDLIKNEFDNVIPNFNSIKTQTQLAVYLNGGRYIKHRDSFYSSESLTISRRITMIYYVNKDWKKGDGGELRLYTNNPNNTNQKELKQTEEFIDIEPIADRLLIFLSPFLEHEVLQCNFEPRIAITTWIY

DdPhyA(60-284) = target: T3, DdPhyA(60-284) (Dictyostelium discoideum, UniProt Q86KR9); experiment: X-ray crystallography, […] Å; format: binding; conditions: Ni(II) in place of Fe(II); active site, bidentate to metal, no Skp1 substrate
T3 construct: gene phyA; catalytic domain residues 60-284 (once printed 60-286), E. coli, His6-ZBasic tag cleaved; 3 molecules per asymmetric unit; Ni(II) substituting for Fe(II)
T3 sequence (Q86KR9 60-284): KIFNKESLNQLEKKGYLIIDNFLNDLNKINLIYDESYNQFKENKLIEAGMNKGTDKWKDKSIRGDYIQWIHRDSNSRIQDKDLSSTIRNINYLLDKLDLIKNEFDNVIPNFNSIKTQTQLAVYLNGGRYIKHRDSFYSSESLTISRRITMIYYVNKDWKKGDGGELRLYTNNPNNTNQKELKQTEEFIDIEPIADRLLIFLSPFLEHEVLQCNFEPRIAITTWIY
Source text: The C-5 carboxylate of NOG is bound

TgPhyA [2] = target: T1, TgPhyA; experiment: 1H NMR of 2OG conversion to succinate; format: biochemical; conditions: uncoupled (no Skp1); enzyme 20 μM, 2OG 500 μM, Fe(II) 50 μM, ascorbate 1 mM, Tris-D11 pH 7.5, room temperature

Structure (SMILES) | Tm shift (TgPhyA [1]) | Tm shift (DdPhyA) | X-ray crystallography, 2.02 Å (DdPhyA(60-284)) | 2OG turnover (TgPhyA [2])
O=C(O)CNC(=O)C(=O)O [NOG] | Ni(II) ions and N-oxalylglycine (a stable 2OG analog, Fig. S9) stabilize the enzymes | Ni(II) ions and N-oxalylglycine (a stable 2OG analog, Fig. S9) stabilize the enzymes | the latter in a bidentate manner. The C-5 carboxylate of NOG is bound | –
O=C(O)CCC(=O)C(=O)O [2OG] | – | – | – | TgPhyA exhibited substantial uncoupled 2OG turnover in the absence of substrate
